For this assay, the system named is HCV replicon. Format: cell-based, hepatitis C virus. The following applies: HCV replicon cells, two days with compound, replicon RNA corrected by GAPDH; read-out: HCV replicon inhibitory activity: EC50. The protocol: The inhibitory activity against the replication of HCV replicon was evaluated by determining the amount of replicon RNA, purified from cell lysate with a conventional column method, using real-time RT-PCR based on Taq-Man chemistry. The assay was carried out with the modified method reported by Lohmann et al., Science 285: 100 (1999) and Takeuchi et al., Gastroenterology 116: 636-642 (1999). The details thereof are described in the following.
7.5×10^3 HCV replicon cells in 0.1 ml of D-MEM medium containing 5% fetal bovine serum and 300 μg/ml of G418 (Kishine et al., B.B.R.C. 293: 993-999 (2002)) were seeded in each well of a 96-well microtiter plate (Corning Inc.). After the plate was incubated at 37° C. for 16 hours in 5% CO2, the medium was replaced with the above-mentioned medium in which the test compound was dissolved. […]
RT-PCR was carried out by using the ABI PRISM 7900HT sequence detection system (Applied Biosystems Inc.), and the gene copy number of the HCV replicon RNA in each cell was determined. […]
As a further control for RNA recovery in each assay well, the copy number of cellular Glyceraldehyde-3-phosphate dehydrogenase (GAPDH) mRNA was quantified by real-time RT-PCR with specific primer set and probe (all of these were produced by Takara Shuzo Co., Ltd.) as described above (part3) […]
(In general: In antiviral work, replicon cells carry a viral genome segment that copies itself.)

Some results are limits rather than exact numbers.

Broadly, the EC50 is the concentration that produces a half-maximal response. For the molecule `C/C=C/C[C@@H](C)[C@@H](O)[C@H]1C(=O)N[C@@H]([C@@H](C)O)C(=O)N(C)CC(=O)N(C)[C@@H](CC(C)C)C(=O)N[C@@H](CC(C)C)C(=O)N(C)[C@@H](CC(C)C)C(=O)N[C@@H](C)C(=O)N[C@H](C)C(=O)N(C)[C@@H](C[C@H](C)CO)C(=O)N[C@@H](CC(C)C)C(=O)N(C)[C@@H](C(C)C)C(=O)N1C` [(2)], the EC50 is less than 3 µM.
